# Data taken from paper PMC6201685 (Biochemistry, 2016).
# Assays:
# Rv2671 [1] = biological target: T1, Rv2671 (Mycobacterium tuberculosis, UniProt P71968); assay type: biochemical
# Rv2671 [2] = biological target: T1, Rv2671; assay: X-ray cocrystal structure; assay type: biochemical
# [3] = tested on: Nc1nc2c(c(=O)[nH]1)N=C(CNc1ccc(C(=O)N[C@@H](CCC(=O)O)C(=O)O)cc1)CN2; assay: purified protein
# [4] = tested on: Nc1nc2c(c(=O)[nH]1)N=C(CNc1ccc(C(=O)O)cc1)CN2; assay: purified protein
compound,measurement,setting,value
NC(=O)C1=CN([C@@H]2O[C@H](COP(=O)(O)OP(=O)(O)OC[C@H]3O[C@@H](n4cnc5c(N)ncnc54)[C@H](OP(=O)(O)O)[C@@H]3O)[C@@H](O)[C@H]2O)C=CC1 [NADPH],"cosubstrate in DHF reduction assay with purified enzyme (340 nm, HPLC)",Rv2671 [1],"Tetrahydrofolate, the product of the reaction, was observed by HPLC spectrometry after the addition of DHF and NADPH to Rv2671"
"COc1cc(NCc2ccc3nc(N)nc(N)c3c2C)cc(OC)c1OC [TMQ, trimetrexate]",IC50,Rv2671 [2],280 ± 20 nM
Rv2671 (Mycobacterium tuberculosis H37Rv),Km,[3],136 ± 32 µM
same,Km,[4],180.2 ± 25.5 µM
